Measurements: patent US20050129618A1, “Drugs for ameliorating itch, rough skin or hypersensitive skin or for whitening via inhibition of the production and release of stem cell factor” (Shiseido Co., ltd., priority 2001, published 2005)

System: SCF expression on keratinocyte membranes
Experiment: Accelerated SCF expression on keratinocyte membranes by different stimulations
Format: cell-based, human
Settings: chemical stimulation, culturing for 24 hours; FIG. 4
Description: After plating 1.5 million keratinocytes on a 10 cm plate and culturing for 72 hours, the cells were stimulated by one of the following: (1) exchanging the medium with PBS(−), irradiating the culture with UVB at 20 mJ/cm^2 and then immediately exchanging the PBS(−) with medium, (2) adding forskolin, or (3) adding theophyllin. After culturing for 24 hours, the cells were collected and then dispersed in 200 μl of 50 mM phosphate buffer solution (pH 7.8)+protease inhibitor solution, and the cells were then disrupted with an ultrasonic disrupter for five 30-second disruption cycles at 4° C. After centrifugation at 10,000 g for 20 minutes at 4° C., the supernatant was further centrifuged at 100,000 g for 60 minutes at 4° C. The obtained pellet was dissolved in 100 μl of 25 mM phosphate buffer solution (pH 6.8)+0.1% Triton-X100 solution and a membrane fraction protein extract was obtained. The protein content of the solution was measured by an established method, and then the SCF amount was assayed to obtain an SCF/protein value.

Cn1c(=O)c2[nH]cnc2n(C)c1=O [theophyllin]
expression of SCF in the cells or on the cell membranes (SCF/protein value of membrane fraction): accelerated expression of SCF
